Tested on: NOMO1
Test: cell viability relative to DMSO control; higher = less cytotoxic
Conditions: 48 h
How it was run: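 In 1536-well plates, 5 μl of leukemia cells were seeded per well: 500 cells/well for NOMO1 or SEM and 1000 cells/well for P12-Ichikawa. Each line had first been adapted for at least four passages in each medium. Library compounds in DMSO were pin-dosed at 11 threefold concentrations between 47 μM and 0.79 nM, and CellTiter-Glo One luminescence was read after 48 h at 37°C. Viability is a per-plate percentage relative to DMSO wells, with cell-free wells as background.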

[1] = HPLM + 10% dialyzed FBS, 0.000781 µM
[2] = HPLM + 10% dialyzed FBS, 0.00234 µM
[3] = HPLM + 10% dialyzed FBS, 0.00702 µM
[4] = HPLM + 10% dialyzed FBS, 0.0211 µM
[5] = HPLM + 10% dialyzed FBS, 0.0632 µM
[6] = HPLM + 10% dialyzed FBS, 0.19 µM
[7] = HPLM + 10% dialyzed FBS, 0.569 µM
[8] = HPLM + 10% dialyzed FBS, 1.71 µM
[9] = HPLM + 10% dialyzed FBS, 5.12 µM
[10] = HPLM + 10% dialyzed FBS, 15.4 µM
[11] = HPLM + 10% dialyzed FBS, 46.1 µM
[12] = RPMI 5 mM glucose + 10% FBS, 0.000781 µM
[13] = RPMI 5 mM glucose + 10% FBS, 0.00234 µM
[14] = RPMI 5 mM glucose + 10% FBS, 0.00702 µM
[15] = RPMI 5 mM glucose + 10% FBS, 0.0211 µM
[16] = RPMI 5 mM glucose + 10% FBS, 0.0632 µM
[17] = RPMI 5 mM glucose + 10% FBS, 0.19 µM
[18] = RPMI 5 mM glucose + 10% FBS, 0.569 µM
[19] = RPMI 5 mM glucose + 10% FBS, 1.71 µM
[20] = RPMI 5 mM glucose + 10% FBS, 5.12 µM
[21] = RPMI 5 mM glucose + 10% FBS, 15.4 µM
[22] = RPMI 5 mM glucose + 10% FBS, 46.1 µM
[23] = RPMI 5 mM glucose + 10% dialyzed FBS, 0.000781 µM
[24] = RPMI 5 mM glucose + 10% dialyzed FBS, 0.00234 µM
[25] = RPMI 5 mM glucose + 10% dialyzed FBS, 0.00702 µM
[26] = RPMI 5 mM glucose + 10% dialyzed FBS, 0.0211 µM
[27] = RPMI 5 mM glucose + 10% dialyzed FBS, 0.0632 µM
[28] = RPMI 5 mM glucose + 10% dialyzed FBS, 0.19 µM
[29] = RPMI 5 mM glucose + 10% dialyzed FBS, 0.569 µM
[30] = RPMI 5 mM glucose + 10% dialyzed FBS, 1.71 µM
[31] = RPMI 5 mM glucose + 10% dialyzed FBS, 5.12 µM
[32] = RPMI 5 mM glucose + 10% dialyzed FBS, 15.4 µM
[33] = RPMI 5 mM glucose + 10% dialyzed FBS, 46.1 µM

Compound	cell viability [1]	cell viability [2]	cell viability [3]	cell viability [4]	cell viability [5]	cell viability [6]	cell viability [7]	cell viability [8]	cell viability [9]	cell viability [10]	cell viability [11]	cell viability [12]	cell viability [13]	cell viability [14]	cell viability [15]	cell viability [16]	cell viability [17]	cell viability [18]	cell viability [19]	cell viability [20]	cell viability [21]	cell viability [22]	cell viability [23]	cell viability [24]	cell viability [25]	cell viability [26]	cell viability [27]	cell viability [28]	cell viability [29]	cell viability [30]	cell viability [31]	cell viability [32]	cell viability [33]
CC(NCCc1ccc(O)cc1)C(O)c1ccc(O)cc1 (centres undefined)	124%	123%	121%	111%	124%	120%	127%	110%	118%	97.5%	80%	113%	106%	107%	113%	102%	96.2%	101%	104%	105%	94.8%	95%	93.4%	114%	109%	99.7%	110%	114%	102%	93.8%	91.3%	93.5%	77.3%
CC(C)OC1=CC=C2C(=C1)O\C=C(/C2=O)C3=CC=CC=C3	116%	119%	130%	143%	151%	120%	122%	105%	108%	123%	120%	–	–	–	–	–	–	–	–	–	–	–	–	–	–	–	–	–	–	–	–	–	–
CC/1=C(/N2[C@H](SC1)[C@H](NC(=O)C(N)C3=CC=CC=C3)C2=O)C(O)=O (some centres undefined)	106%	118%	118%	137%	135%	136%	145%	152%	137%	106%	141%	–	–	–	–	–	–	–	–	–	–	–	109%	135%	123%	148%	145%	132%	149%	137%	154%	146%	130%
C[C@]12CC[C@H]3[C@@H](CCC/4=C/C(=O)CC[C@]34C)[C@@H]1CC[C@@H]2OC(=O)CCC5CCCC5	90.8%	100%	103%	113%	96.1%	113%	118%	104%	111%	114%	110%	86.5%	107%	119%	109%	101%	108%	114%	113%	114%	105%	109%	94.6%	105%	116%	110%	111%	116%	130%	107%	116%	111%	109%
COC1=CC=C(C=C1O)C/2=C/C(=O)C3=C(O2)C=C(O[C@@H]4O[C@H](CO[C@@H]5O[C@@H](C)[C@H](O)[C@@H](O)[C@H]5O)[C@@H](O)[C@H](O)[C@H]4O)C=C3O	112%	118%	129%	126%	130%	142%	134%	117%	117%	129%	139%	112%	103%	110%	115%	130%	114%	126%	125%	126%	124%	114%	–	–	–	–	–	–	–	–	–	–	–
CO/N=C(\C(=O)N[C@@H]1C(=O)N2C(C(=O)OCOC(=O)C(C)(C)C)=C(/C=C\c3scnc3C)CS[C@H]12)c1csc(N)n1	81.6%	111%	103%	93.3%	102%	87.7%	109%	102%	106%	81.7%	42.9%	81%	106%	92.8%	98.9%	104%	104%	99.4%	92.5%	95%	84.6%	58.2%	72.8%	83.9%	88%	80.9%	91.1%	83.9%	96.2%	99.1%	88%	70%	48.6%
O=c1[nH]c(=O)n(C2CCCO2)cc1F (centres undefined)	–	–	–	–	–	–	–	–	–	–	–	10.4%	124%	108%	116%	105%	131%	106%	110%	116%	111%	109%	–	–	–	–	–	–	–	–	–	–	–
COC1=CC=C2/C3=N/CCN3\C(=N/C2=C1OC)NC(=O)C4=CC=CN=C4	124%	132%	123%	131%	121%	126%	114%	111%	93.2%	86%	78.6%	104%	115%	113%	123%	132%	108%	110%	114%	107%	115%	92.7%	116%	141%	117%	127%	131%	104%	103%	103%	83.6%	76.5%	68%
COc1cccc2c1CCCC2CCCN1CCN(C2CCCCC2)CC1 (centres undefined)	97.9%	105%	99.9%	106%	114%	138%	111%	105%	96.7%	99.7%	57%	102%	107%	109%	100%	99.5%	103%	103%	94%	96.2%	89.7%	66.2%	89.2%	100%	98%	92.7%	93.1%	104%	92.9%	94.8%	109%	87.9%	58%
OC(CN1CCN(c2cccc(Cl)c2)CC1)C(c1ccccc1)c1ccccc1 (centres undefined)	–	–	–	–	–	–	–	–	–	–	–	116%	119%	133%	127%	132%	126%	108%	22.7%	16.6%	14.1%	7.62%	124%	118%	124%	126%	138%	125%	126%	31%	27.8%	24%	9.63%
CCOC(=O)Nc1ccc(NCc2ccc(F)cc2)nc1N	123%	137%	114%	127%	117%	117%	108%	101%	104%	109%	120%	118%	105%	103%	111%	110%	127%	101%	105%	103%	114%	106%	108%	113%	110%	123%	122%	109%	119%	119%	112%	106%	102%
CCOC1=CC=CC=C1N\2C(=O)C3=C(C=CC=C3)\N=C2C(C)N4CCN(CC4)C(=O)COC5=CC=C(Cl)C=C5 (centres undefined)	–	–	–	–	–	–	–	–	–	–	–	116%	115%	132%	112%	131%	127%	119%	37.8%	10.4%	5.57%	3.82%	–	–	–	–	–	–	–	–	–	–	–
NC/1=N/C(=O)N(/C=N1)[C@@H]2O[C@H](CO)[C@@H](O)[C@H]2O	108%	108%	111%	101%	106%	115%	108%	100%	94.8%	65.8%	21.2%	100%	109%	91.5%	93.6%	99.9%	106%	96.9%	90.6%	81.3%	52.7%	20.7%	110%	112%	106%	110%	116%	111%	109%	91.6%	72.6%	32.6%	14.6%
C[C@]12CCC\3=C\4CCC(=O)\C=C4CC[C@H]3[C@@H]1CC[C@@]2(O)CC#N	123%	123%	138%	144%	143%	139%	138%	125%	158%	137%	168%	–	–	–	–	–	–	–	–	–	–	–	–	–	–	–	–	–	–	–	–	–	–
C[C@H]1COC/2=C1/C(=O)C(=O)C3=C4CCCC(C)(C)C4=CC=C23	114%	131%	121%	116%	154%	146%	137%	163%	158%	132%	134%	–	–	–	–	–	–	–	–	–	–	–	123%	129%	120%	136%	135%	129%	148%	156%	141%	134%	151%
NC(=O)NO	88.2%	102%	110%	110%	116%	100%	88.9%	84.9%	16.6%	3.7%	2.4%	83.9%	90.8%	85.6%	88.7%	86.1%	90.2%	90.8%	94.6%	37.3%	10.4%	1.27%	81.9%	90.4%	92.6%	95.3%	98%	87.2%	91.1%	96%	33%	10%	1.29%
OC1=CC2=C(C(=C1)O)C(=O)\C(=C(/O2)C3=CC(=C(O)C=C3)O)O	97.5%	104%	102%	112%	125%	117%	116%	99.7%	118%	110%	109%	98.1%	105%	115%	90.8%	110%	108%	106%	110%	95.4%	90.5%	97.9%	98.2%	98%	109%	107%	104%	118%	110%	104%	107%	106%	102%
CC(C)[C@H](N)C(=O)OCCOC[N]1C=NC2=C1\N=C(N)/NC2=O	102%	119%	110%	122%	135%	135%	133%	123%	133%	113%	142%	–	–	–	–	–	–	–	–	–	–	–	–	–	–	–	–	–	–	–	–	–	–
COc1ncc(-c2ccc3c(Nc4cc(Oc5cc(F)cc(F)c5)cc(C(=O)O)c4)c([S+](=O)([O-])NC4CC4)cnc3c2)c(OC)n1	112%	111%	91.1%	106%	113%	98%	95.7%	99.3%	86.5%	77.7%	87.2%	96.6%	102%	89.9%	95.6%	100%	84.1%	98.3%	92.3%	81.9%	87.7%	85.3%	97.2%	94.4%	94%	89%	92%	102%	89.7%	86.9%	81.1%	79.7%	75.6%
O=[S+]([O-])(c1cccc2cnccc12)N1CCCNCC1	98.7%	124%	136%	136%	132%	147%	139%	136%	130%	116%	51%	–	–	–	–	–	–	–	–	–	–	–	–	–	–	–	–	–	–	–	–	–	–
